Holding throughout (type): cell-based
What all share (conditions): 16 h treatment, EGFR degradation by HTRF
For orientation: Time-resolved FRET reads energy transfer from a long-lived donor to a nearby acceptor.

One test has as its system EGFR DTC. The experiment in a line: Cell Degradation 3: EGFR degradation in BaF3 cells (DTC), HTRF assay. How it is done: (§1) Cell Degradation 3 Cell Treatment
(§2) BaF3 cells are treated with compounds diluted in 0.2% DMSO, dilution is done according to the following protocol: (1) make 500× stock solution in DMSO from 5 mM by 4-fold dilution, total 8 doses were included; (2) make 2× solution in cell culture medium by transferring 0.5 μl 500× stock solution into 125 μl medium; (3) 30 μl of 2× solution is added to cells and incubate for 16 h.
(§3) After 16 h treatment, add 20 μl 4×lysis buffer to each well; seal the plate and incubate 1 hour at room temperature on a plate shaker; Once the cells are lysed, 16 μL of cell lysate are transferred to a PE 384-well HTRF detection plate (for triple mutant cells, the lysate were diluted by the qual volume 1×lysis buffer before transfer); 4 μL of pre-mixed HTRF antibodies are added to each well; Cover the plate with a plate sealer, spin 1000 rpm for 1 min, Incubate overnight at room temperature; Read on BMG PheraStar with HTRF protocol (337 nm-665 nm-620 nm).
(§4) The IC50 (DC50) value of a compound can be obtained by fitting the following equation Y=Bottom+(TOP−Bottom)/(1+((IC50/X)^hillslope))
(§5) Wherein, X and Y are known values, and IC50, Hillslope, Top and Bottom are the parameters obtained by fitting with software. Y is the inhibition percentage (calculated from the equation), X is the concentration of the compound; IC50 is the concentration of the compound when the 50% inhibition is reached. The smaller the IC50 value is, the stronger the inhibitory ability of the compound is. Vice versa, the higher the IC50 value is, the weaker the ability the inhibitory ability of the compound is; Hillslope represents the slope of the fitted curve, generally around 1*; Bottom represents the minimum value of the curve obtained by data fitting, which is generally 0%±20%; Top represents the maximum value of the curve obtained by data fitting, which is generally 100%±20%. The experimental data were fitted by calculating and analyzing with Dotmatics data analysis software.

The next test has as its target T1, EGFR LTC (Homo sapiens, UniProt P00533, C797S/L858R/T790M).
T1 construct: expressed in transfected cells; host or cells: BaF3
The experiment in a line: Cell Degradation 3: EGFR degradation in BaF3 cells (LTC), HTRF assay. How it is done: as §1, §2, §3, §4, §5

Test [1] deals with T2, EGFR (Homo sapiens, UniProt P00533, DEL746-750).
T2 construct: endogenous in cells; host or cells: HCC827
Kind of test: Cell Degradation 2: EGFR degradation in HCC827 cells, HTRF assay. The essentials: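 Compound-treated HCC827 cells were lysed after 16 h and EGFR measured by HTRF (337 nm excitation, 665/620 nm emission) after overnight antibody incubation at room temperature. DC50 came from a four-parameter fit of percent inhibition against compound concentration.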

For test [2], the target named is T3, EGFR (Homo sapiens, UniProt P00533, L858R/T790M).
T3 construct: endogenous in cells; host or cells: H1975
The experiment in a line: Cell Degradation 1: EGFR degradation in H1975 cells, HTRF assay. The method, boiled down: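 H1975 cells treated with compound for 16 h, lysed 1 h at room temperature. EGFR measured by HTRF after overnight antibody incubation (665/620 nm). DC50 from four-parameter logistic fit of percent inhibition against concentration.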

Molecules are shown by their SMILES.

T1 sequence (P00533 25-1210 T790M/C797S/L858R): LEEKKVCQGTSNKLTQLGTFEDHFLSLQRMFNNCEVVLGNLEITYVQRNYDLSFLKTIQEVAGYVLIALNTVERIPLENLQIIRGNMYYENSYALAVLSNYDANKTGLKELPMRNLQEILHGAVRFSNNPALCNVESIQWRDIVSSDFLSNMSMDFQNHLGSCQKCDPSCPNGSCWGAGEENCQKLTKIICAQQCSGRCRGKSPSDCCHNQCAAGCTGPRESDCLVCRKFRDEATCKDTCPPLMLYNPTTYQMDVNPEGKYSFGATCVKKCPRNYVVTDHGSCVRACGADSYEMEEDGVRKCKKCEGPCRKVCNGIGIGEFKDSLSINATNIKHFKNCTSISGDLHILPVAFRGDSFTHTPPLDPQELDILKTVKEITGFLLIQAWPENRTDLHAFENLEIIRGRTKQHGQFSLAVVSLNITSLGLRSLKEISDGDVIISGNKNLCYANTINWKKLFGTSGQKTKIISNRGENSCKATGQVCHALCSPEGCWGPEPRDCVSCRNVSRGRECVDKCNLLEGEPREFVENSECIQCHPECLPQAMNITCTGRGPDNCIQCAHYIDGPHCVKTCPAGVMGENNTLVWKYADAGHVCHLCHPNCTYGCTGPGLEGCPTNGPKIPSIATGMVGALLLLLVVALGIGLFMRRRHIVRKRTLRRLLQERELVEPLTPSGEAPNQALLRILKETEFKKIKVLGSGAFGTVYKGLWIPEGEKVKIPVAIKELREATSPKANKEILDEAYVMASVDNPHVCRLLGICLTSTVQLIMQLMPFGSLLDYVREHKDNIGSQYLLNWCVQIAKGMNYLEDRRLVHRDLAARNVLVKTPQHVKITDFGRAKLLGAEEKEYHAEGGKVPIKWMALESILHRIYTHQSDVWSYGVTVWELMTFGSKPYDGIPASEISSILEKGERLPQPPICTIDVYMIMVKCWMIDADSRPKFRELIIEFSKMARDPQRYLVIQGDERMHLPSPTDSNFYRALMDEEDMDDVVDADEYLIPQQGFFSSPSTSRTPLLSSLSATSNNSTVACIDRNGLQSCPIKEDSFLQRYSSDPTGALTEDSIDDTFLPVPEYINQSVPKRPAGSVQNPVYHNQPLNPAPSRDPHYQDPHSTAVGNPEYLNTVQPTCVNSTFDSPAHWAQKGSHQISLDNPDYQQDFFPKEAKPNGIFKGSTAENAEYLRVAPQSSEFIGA
T2 sequence (P00533 with tags, fused parts or gaps DEL746-750): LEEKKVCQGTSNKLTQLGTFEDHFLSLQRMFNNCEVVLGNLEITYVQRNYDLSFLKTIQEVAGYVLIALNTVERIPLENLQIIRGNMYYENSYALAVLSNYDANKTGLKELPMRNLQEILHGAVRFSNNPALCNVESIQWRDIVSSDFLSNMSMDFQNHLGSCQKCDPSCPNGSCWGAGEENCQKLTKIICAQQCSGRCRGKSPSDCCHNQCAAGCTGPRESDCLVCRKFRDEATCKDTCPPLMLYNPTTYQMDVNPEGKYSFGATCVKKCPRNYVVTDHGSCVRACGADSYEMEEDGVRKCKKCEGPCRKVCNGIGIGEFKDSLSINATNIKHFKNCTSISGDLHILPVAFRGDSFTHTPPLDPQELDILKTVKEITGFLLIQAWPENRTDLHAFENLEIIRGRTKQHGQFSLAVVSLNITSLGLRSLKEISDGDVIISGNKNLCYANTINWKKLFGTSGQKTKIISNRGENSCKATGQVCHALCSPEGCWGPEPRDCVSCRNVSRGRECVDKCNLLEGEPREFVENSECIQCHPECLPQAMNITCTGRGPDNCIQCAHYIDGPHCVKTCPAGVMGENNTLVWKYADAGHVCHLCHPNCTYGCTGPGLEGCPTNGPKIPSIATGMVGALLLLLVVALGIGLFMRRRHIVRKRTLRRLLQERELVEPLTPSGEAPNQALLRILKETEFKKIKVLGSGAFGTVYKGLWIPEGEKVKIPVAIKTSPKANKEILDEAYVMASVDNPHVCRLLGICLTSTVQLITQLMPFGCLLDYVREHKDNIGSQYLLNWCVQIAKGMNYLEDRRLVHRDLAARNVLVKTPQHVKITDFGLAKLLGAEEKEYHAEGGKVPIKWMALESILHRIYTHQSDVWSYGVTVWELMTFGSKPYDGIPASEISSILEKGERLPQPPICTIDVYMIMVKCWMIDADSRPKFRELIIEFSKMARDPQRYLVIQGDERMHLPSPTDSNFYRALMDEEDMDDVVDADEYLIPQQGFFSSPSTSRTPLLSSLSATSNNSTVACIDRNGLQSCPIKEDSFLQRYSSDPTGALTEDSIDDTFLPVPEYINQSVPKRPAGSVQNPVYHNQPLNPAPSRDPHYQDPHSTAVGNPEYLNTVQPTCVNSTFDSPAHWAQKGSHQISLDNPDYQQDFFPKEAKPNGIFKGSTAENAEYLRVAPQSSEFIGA
T2 sequence (Q96SW2 whole entry partner): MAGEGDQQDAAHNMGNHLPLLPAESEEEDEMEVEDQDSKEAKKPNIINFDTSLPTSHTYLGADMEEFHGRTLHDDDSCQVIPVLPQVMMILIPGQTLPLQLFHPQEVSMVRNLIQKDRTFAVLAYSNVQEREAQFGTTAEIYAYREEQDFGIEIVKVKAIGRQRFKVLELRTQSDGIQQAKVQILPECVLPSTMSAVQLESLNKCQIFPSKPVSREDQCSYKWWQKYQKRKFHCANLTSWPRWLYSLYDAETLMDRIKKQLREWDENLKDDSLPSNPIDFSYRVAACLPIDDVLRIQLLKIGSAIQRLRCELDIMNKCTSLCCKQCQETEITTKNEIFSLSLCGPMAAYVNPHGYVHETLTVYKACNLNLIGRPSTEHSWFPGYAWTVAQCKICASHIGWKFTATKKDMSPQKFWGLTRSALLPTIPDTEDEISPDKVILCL
T3 sequence (P00533 25-1210 T790M/L858R): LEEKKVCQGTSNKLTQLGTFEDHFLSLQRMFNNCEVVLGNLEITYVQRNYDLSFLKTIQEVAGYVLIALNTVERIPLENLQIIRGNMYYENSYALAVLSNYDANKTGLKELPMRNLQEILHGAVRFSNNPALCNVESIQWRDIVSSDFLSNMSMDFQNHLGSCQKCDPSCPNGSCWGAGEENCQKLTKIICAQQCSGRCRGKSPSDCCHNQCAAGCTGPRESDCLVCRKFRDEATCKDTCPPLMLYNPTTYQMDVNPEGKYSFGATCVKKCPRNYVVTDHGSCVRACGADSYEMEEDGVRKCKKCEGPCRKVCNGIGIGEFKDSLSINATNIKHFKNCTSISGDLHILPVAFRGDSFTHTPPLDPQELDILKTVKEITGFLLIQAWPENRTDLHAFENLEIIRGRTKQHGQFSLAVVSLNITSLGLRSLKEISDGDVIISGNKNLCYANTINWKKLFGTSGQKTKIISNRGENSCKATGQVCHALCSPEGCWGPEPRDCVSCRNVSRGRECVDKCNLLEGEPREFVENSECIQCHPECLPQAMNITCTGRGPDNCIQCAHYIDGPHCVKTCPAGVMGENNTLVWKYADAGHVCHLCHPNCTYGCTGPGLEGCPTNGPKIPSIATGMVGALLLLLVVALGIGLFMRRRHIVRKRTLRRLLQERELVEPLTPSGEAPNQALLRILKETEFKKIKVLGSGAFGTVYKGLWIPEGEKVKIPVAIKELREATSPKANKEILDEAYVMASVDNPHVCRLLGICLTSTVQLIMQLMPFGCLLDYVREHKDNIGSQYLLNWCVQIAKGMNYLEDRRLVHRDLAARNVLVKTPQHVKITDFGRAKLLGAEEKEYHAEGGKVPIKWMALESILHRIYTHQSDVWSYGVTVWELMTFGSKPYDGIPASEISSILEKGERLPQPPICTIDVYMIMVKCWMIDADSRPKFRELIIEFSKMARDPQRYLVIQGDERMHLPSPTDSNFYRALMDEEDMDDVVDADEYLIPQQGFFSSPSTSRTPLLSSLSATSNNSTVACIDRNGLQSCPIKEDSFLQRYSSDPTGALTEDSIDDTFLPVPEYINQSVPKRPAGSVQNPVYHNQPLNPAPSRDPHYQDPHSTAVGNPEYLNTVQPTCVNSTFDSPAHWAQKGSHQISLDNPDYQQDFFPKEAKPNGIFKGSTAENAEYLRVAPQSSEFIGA

On to `COc1cc(N2CCC(N3CCN(CCNc4cccc5c4CN(C4CCC(=O)NC4=O)C5=O)CC3)CC2)c(C)cc1Nc1ncc(Br)c(Nc2cccc3c2N(S(C)(=O)=O)CC3)n1` (stereo not shown) [Example 173, 3-(4-((2-(4-(1-(4-((5-bromo-4-((1-(methylsulfonyl)indolin-7-yl)amino)pyrimidin-2-yl)amino)-5-methoxy-2-methylphenyl)piperidin-4-yl)piperazin-1-yl)ethyl)amino)-1-oxoisoindolin-2-yl)piperidine-2,6-dione], for which the DC50 with EGFR DTC came to 15 nM; at EGFR LTC, 27 nM.

`CCc1cc(Nc2ncc(Br)c(Nc3ccc(C4CC4)c4c3N(S(C)(=O)=O)CC4)n2)c(OC)cc1N1CCC(N2CCN(CCc3cc(F)c(C4CCC(=O)NC4=O)c(F)c3)CC2)CC1` (stereo not shown) [Example 193, 3-(4-(2-(4-(1-(4-((5-bromo-4-((4-cyclopropyl-1-(methylsulfonyl)indolin-7-yl)amino)pyrimidin-2-yl)amino)-2-ethyl-5-methoxyphenyl)piperidin-4-yl)piperazin-1-yl)ethyl)-2,6-difluorophenyl)piperidine-2,6-dione] showed a DC50 on EGFR LTC of 74 nM. As to `COc1cc(N2CCC(N3CCN(CCN4CCC(c5ccc(NC6CCC(=O)NC6=O)cc5)CC4)CC3)CC2)c(C)cc1Nc1ncc(Br)c(Nc2cccc3c2N(S(C)(=O)=O)CC3)n1` (stereo not shown) [Example 157, 3-((4-(1-(2-(4-(1-(4-((5-bromo-4-((1-(methylsulfonyl)indolin-7-yl)amino)pyrimidin-2-yl)amino)-5-methoxy-2-methylphenyl)piperidin-4-yl)piperazin-1-yl)ethyl)piperidin-4-yl)phenyl)amino)piperidine-2,6-dione], the DC50 with EGFR DTC is 300 nM; at EGFR LTC it was 396 nM.

Consider `COc1cc(N2CCC(N3CCN(C(=O)C4CCN(c5cc(F)c(C6CCC(=O)NC6=O)c(F)c5)C4)CC3)CC2)c(C)cc1Nc1ncc(Br)c(Nc2cccc3c2N(S(C)(=O)=O)CC3)n1` (stereo not shown) [Example 187, 3-(4-(3-(4-(1-(4-((5-bromo-4-((1-(methylsulfonyl)indolin-7-yl)amino)pyrimidin-2-yl)amino)-5-methoxy-2-methylphenyl)piperidin-4-yl)piperazine-1-carbonyl)pyrrolidin-1-yl)-2,6-difluorophenyl)piperidine-2,6-dione], for which the DC50 was found to be 14 nM with EGFR DTC and 19 nM at EGFR LTC. The like results for `COc1cc(N2CCC(N3CCN(C(=O)C4CCN(c5ccc6c(c5)C(=O)N(C5CCC(=O)NC5=O)C6=O)CC4)CC3)CC2)c(C)cc1Nc1ncc(Cl)c(Nc2cccc3c2N(S(C)(=O)=O)CC3)n1` (stereo not shown) [Example 178, 5-(4-(4-(1-(4-((5-chloro-4-((1-(methylsulfonyl)indolin-7-yl)amino)pyrimidin-2-yl)amino)-5-methoxy-2-methylphenyl)piperidin-4-yl)piperazine-1-carbonyl)piperidin-1-yl)-2-(2,6-dioxopiperidin-3-yl)isoindoline-1,3-dione] were, in that order, 8 nM and 23 nM. `CCc1cc(Nc2ncc(Br)c(Nc3ccc(C(F)(F)F)c4c3N(S(C)(=O)=O)CC4)n2)c(OC)cc1N1CCC(N2CCN(C(=O)[C@@H]3CCN(c4cc(F)c([C@H]5CCC(=O)NC5=O)c(F)c4)C3)CC2)CC1` [Example 197, (R)-3-(4-((R)-3-(4-(1-(4-((5-bromo-4-((1-(methylsulfonyl)-4-(trifluoromethyl)indolin-7-yl)amino)pyrimidin-2-yl)amino)-2-ethyl-5-methoxyphenyl)piperidin-4-yl)piperazine-1-carbonyl)pyrrolidin-1-yl)-2,6-difluorophenyl)piperidine-2,6-dione] returned a DC50 on EGFR LTC of 83 nM. Turning to `CCOc1cc(N2CCC(N3CCN(CCc4cc(F)c([C@H]5CCC(=O)NC5=O)c(F)c4)CC3)CC2)c(CC)cc1Nc1ncc(Br)c(Nc2ccc(CC)c3c2N(S(C)(=O)=O)CC3)n1` [Example 203, (R)-3-(4-(2-(4-(1-(4-((5-bromo-4-((4-ethyl-1-(methylsulfonyl)indolin-7-yl)amino)pyrimidin-2-yl)amino)-5-ethoxy-2-ethylphenyl)piperidin-4-yl)piperazin-1-yl)ethyl)-2,6-difluorophenyl)piperidine-2,6-dione], on EGFR LTC, half-maximal degradation (DC50) was put at 83 nM.

In turn, `CCc1cc(Nc2ncc(Br)c(Nc3ccc(C(F)(F)F)c4c3N(S(C)(=O)=O)CC4)n2)c(OC)cc1N1CCC(N2CCN(C(=O)C3CN(c4cc(F)c([C@H]5CCC(=O)NC5=O)c(F)c4)C3)CC2)CC1` [Example 196, (R)-3-(4-(3-(4-(1-(4-((5-bromo-4-((1-(methylsulfonyl)-4-(trifluoromethyl)indolin-7-yl)amino)pyrimidin-2-yl)amino)-2-ethyl-5-methoxyphenyl)piperidin-4-yl)piperazine-1-carbonyl)azetidin-1-yl)-2,6-difluorophenyl)piperidine-2,6-dione] had a DC50 on EGFR LTC of 71 nM. Same read-out and setting: as for `CCc1cc(Nc2ncc(Br)c(Nc3ccc(CC)c4c3N(S(C)(=O)=O)CC4)n2)c(OC)cc1N1CCC(N2CCN(C(=O)[C@@H]3CCN(c4cc(F)c([C@H]5CCC(=O)NC5=O)c(F)c4)C3)CC2)CC1` [Example 198, (R)-3-(4-((R)-3-(4-(1-(4-((5-bromo-4-((4-ethyl-1-(methylsulfonyl)indolin-7-yl)amino)pyrimidin-2-yl)amino)-2-ethyl-5-methoxyphenyl)piperidin-4-yl)piperazine-1-carbonyl)pyrrolidin-1-yl)-2,6-difluorophenyl)piperidine-2,6-dione], the figure is 34 nM; as for `CCc1cc(Nc2ncc(Br)c(Nc3ccc(CC)c4c3N(S(C)(=O)=O)CC4)n2)c(OC)cc1N1CCC(N2CCN(CCc3cc(F)c(C4CCC(=O)NC4=O)c(F)c3)CC2)CC1` (stereo not shown) [Example 192, 3-(4-(2-(4-(1-(4-((5-bromo-4-((4-ethyl-1-(methylsulfonyl)indolin-7-yl)amino)pyrimidin-2-yl)amino)-2-ethyl-5-methoxyphenyl)piperidin-4-yl)piperazin-1-yl)ethyl)-2,6-difluorophenyl)piperidine-2,6-dione], 65 nM.

With `CCc1cc(Nc2ncc(Br)c(Nc3ccc(N(C)C)c4c3N(S(C)(=O)=O)CC4)n2)c(OC)cc1N1CCC(N2CCN(CCc3cc(F)c([C@H]4CCC(=O)NC4=O)c(F)c3)CC2)CC1` [Example 200, (R)-3-(4-(2-(4-(1-(4-((5-bromo-4-((4-(dimethylamino)-1-(methylsulfonyl)indolin-7-yl)amino)pyrimidin-2-yl)amino)-2-ethyl-5-methoxyphenyl)piperidin-4-yl)piperazin-1-yl)ethyl)-2,6-difluorophenyl)piperidine-2,6-dione], on EGFR LTC, the DC50 is 513 nM. This DC50 is about 7.9-fold higher than that of the molecule before. Consider `CS(=O)(=O)N1CCc2cccc(Nc3nc(Nc4ccc(N5CCN(CCC6CCN(c7ccc(C8CCC(=O)NC8=O)cc7)CC6)CC5)c(F)c4)nc4[nH]ccc34)c21` (stereo not shown) [Example 27, 3-(4-(4-(2-(4-(2-fluoro-4-((4-((1-(methylsulfonyl)indolin-7-yl)amino)-7H-pyrrolo[2,3-d]pyrimidin-2-yl)amino)phenyl)piperazin-1-yl)ethyl)piperidin-1-yl)phenyl)piperidine-2,6-dione], for which the results for the DC50 at EGFR [1] and on EGFR [2] were 33.6 nM and 10.6 nM, respectively.

`CCc1cc(Nc2ncc(Br)c(Nc3ccc(F)c4c3N(S(C)(=O)=O)CC4)n2)c(OC)cc1N1CCC(N2CCN(CCc3cc(F)c([C@H]4CCC(=O)NC4=O)c(F)c3)CC2)CC1` [Example 195, (R)-3-(4-(2-(4-(1-(4-((5-bromo-4-((4-fluoro-1-(methylsulfonyl)indolin-7-yl)amino)pyrimidin-2-yl)amino)-2-ethyl-5-methoxyphenyl)piperidin-4-yl)piperazin-1-yl)ethyl)-2,6-difluorophenyl)piperidine-2,6-dione]: the DC50 at EGFR LTC was 24 nM. Regarding `CCc1cc(Nc2ncc(Br)c(Nc3ccc(F)c4c3N(S(C)(=O)=O)CC4)n2)c(OC)cc1N1CCC(N2CCN(C(=O)[C@@H]3CCN(c4cc(F)c([C@H]5CCC(=O)NC5=O)c(F)c4)C3)CC2)CC1` [Example 194, (R)-3-(4-((R)-3-(4-(1-(4-((5-bromo-4-((4-fluoro-1-(methylsulfonyl)indolin-7-yl)amino)pyrimidin-2-yl)amino)-2-ethyl-5-methoxyphenyl)piperidin-4-yl)piperazine-1-carbonyl)pyrrolidin-1-yl)-2,6-difluorophenyl)piperidine-2,6-dione], at EGFR LTC, the DC50 is 29 nM.

For orientation: DC50 means the concentration at which degradation of the target reaches its halfway point. Read a high DC50 as degradation only at high concentration.

The record behind these values is patent US12643903B2, “Bifunctional compounds for degradation of EGFR and related methods of use” (BeiGene, Ltd., priority 2020, dated 2026).
